Laboratory results published in patent publication US20100022491A1, “4-HYDROXY-2-OXO-2,3-DIHYDRO-1,3-BENZOTHIAZOL-7YL COMPOUNDS FOR MODULATION OF B2-ADRENORECEPTOR ACTIVITY” (ASTRAZENECA AB, priority 2006, published 2010).
Where a name gives a salt, the structure may show the parent alone.

What was measured:
Adrenergic β2 = molecular target: T1, Adrenergic β2 (Homo sapiens, UniProt P07550); assay: Adrenergic β2 mediated cAMP production in H292 cells; type: cell-based; details: for EC50: H292 cells, cAMP by AlphaScreen, 60 minutes at room temperature, rolipram 300 μM, read-out: β2 pEC50 (converted); for β2 Int Act: Intrinsic Activity as a fraction relative to the maximum activity determined for formoterol
T1 construct: Adherent H292 cells were removed from tissue culture flasks; endogenous in cells; host or cells: H292 cells
T1 sequence (P07550 whole entry): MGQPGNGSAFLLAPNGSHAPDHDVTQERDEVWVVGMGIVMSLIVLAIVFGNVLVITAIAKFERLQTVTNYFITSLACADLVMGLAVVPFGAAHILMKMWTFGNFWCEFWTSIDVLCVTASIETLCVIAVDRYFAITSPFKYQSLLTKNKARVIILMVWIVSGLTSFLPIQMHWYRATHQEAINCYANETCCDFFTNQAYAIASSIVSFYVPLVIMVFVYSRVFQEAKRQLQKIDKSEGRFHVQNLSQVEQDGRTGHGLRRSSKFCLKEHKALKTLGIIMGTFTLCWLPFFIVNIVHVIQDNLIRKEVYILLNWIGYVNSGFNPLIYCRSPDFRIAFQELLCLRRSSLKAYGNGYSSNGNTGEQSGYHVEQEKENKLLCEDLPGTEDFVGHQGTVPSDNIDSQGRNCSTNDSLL
Experimental: Adrenergic β2 mediated cAMP production
H292 cells were grown in 225 cm2 flasks incubator at 37° C., 5% CO2 in RPMI medium containing, 10% (v/v) FBS (foetal bovine serum) and 2 mM L-glutamine.
Adherent H292 cells were removed from tissue culture flasks by treatment with Accutase™ cell detachment solution for 15 minutes. Flasks were incubated for 15 minutes in a humidified incubator at 37° C., 5% CO2. Detached cells were re-suspended in RPMI media (containing 10% (v/v) FBS and 2 mM L-glutamine) at 0.05×10^6 cells per mL. 5000 cells in 100 μL were added to each well of a tissue-culture-treated 96-well plate and the cells incubated overnight in a humidified incubator at 37° C., 5% CO2. The culture media was removed and cells were washed twice with 100 μL assay buffer and replaced with 50 μL assay buffer (HBSS solution containing 10 mM HEPES pH7.4 and 5 mM glucose). Cells were rested at room temperature for 20 minutes after which time 25 μL of rolipram (1.2 mM made up in assay buffer containing 2.4% (v/v) dimethylsulphoxide) was added. Cells were incubated with rolipram for 10 minutes after which time test compounds were added and the cells were incubated for 60 minutes at room temperature. The final rolipram concentration in the assay was 300 μM and final vehicle concentration was 1.6% (v/v) dimethylsulphoxide. The reaction was stopped by removing supernatants, washing once with 100 μL assay buffer and replacing with 50 μL lysis buffer. The cell monolayer was frozen at −80° C. for 30 minutes (or overnight).
The concentration of cAMP (cyclic adenosine monophosphate) in the cell lysate was determined using AlphaScreen™ methodology. The frozen cell plate was thawed for 20 minutes on a plate shaker then 10 μL of the cell lysate was transferred to a 96-well white plate. 40 μL of mixed AlphaScreen™ detection beads pre-incubated with biotinylated cAMP, was added to each well and the plate incubated at room temperature for 10 hours in the dark. The AlphaScreen™ signal was measured using an EnVision spectrophotometer (Perkin-Elmer Inc.) with the recommended manufacturer's settings. cAMP concentrations were determined by reference to a calibration curve determined in the same experiment using standard cAMP concentrations. Concentration response curves for agonists were constructed and data was fitted to a four parameter logistic equation to determine both the pEC50 and Intrinsic Activity. Intrinsic Activity was expressed as a fraction relative to the maximum activity determined for formoterol in each experiment.

[1] = molecular target: T2, recombinant human α1D receptor (Homo sapiens, UniProt P25100); assay: Adrenergic α1D selectivity binding assay ([3H]-prazosin); details: inhibition of [3H]-prazosin (0.3 nM) binding, HEK293 membranes; read-out: α1 bind pIC50 (converted)
T2 construct: expressed in transfected cells; host or cells: HEK293
T2 sequence (P25100 1-572): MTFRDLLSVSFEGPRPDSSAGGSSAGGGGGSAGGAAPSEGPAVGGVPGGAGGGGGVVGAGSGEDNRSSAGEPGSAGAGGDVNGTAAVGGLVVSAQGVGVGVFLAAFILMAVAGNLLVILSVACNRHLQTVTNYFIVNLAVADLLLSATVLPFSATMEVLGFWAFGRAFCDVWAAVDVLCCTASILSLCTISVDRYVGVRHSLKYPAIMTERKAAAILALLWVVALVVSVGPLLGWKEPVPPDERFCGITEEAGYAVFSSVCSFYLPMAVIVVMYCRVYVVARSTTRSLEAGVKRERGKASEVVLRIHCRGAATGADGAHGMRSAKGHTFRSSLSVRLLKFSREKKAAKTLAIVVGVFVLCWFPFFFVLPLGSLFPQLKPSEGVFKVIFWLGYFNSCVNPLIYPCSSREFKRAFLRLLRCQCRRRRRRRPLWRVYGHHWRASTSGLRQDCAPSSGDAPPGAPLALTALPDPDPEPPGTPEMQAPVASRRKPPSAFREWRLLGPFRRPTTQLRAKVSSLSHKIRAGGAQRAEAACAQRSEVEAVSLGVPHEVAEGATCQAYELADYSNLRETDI
Experimental: Membranes were prepared from human embryonic kidney 293 (HEK293) cells expressing recombinant human α1D receptor. These were diluted in Assay Buffer (50 mM HEPES, 1 mM EDTA, 0.1% gelatin, pH 7.4) to provide a final concentration of membranes that gave a clear window between maximum and minimum specific binding.
Assays were performed in U-bottomed 96-well polypropylene plates. 10 μL [^3H]-prazosin (0.3 nM final concentration) and 10 μL of test compound (10× final concentration) were added to each test well. For each assay plate 8 replicates were obtained for [^3H]-prazosin binding in the presence of 10 μL vehicle (10% (v/v) DMSO in Assay Buffer; defining maximum binding) or 10 μL BMY7378 (10 μM final concentration; defining non-specific binding (NSB)). Membranes were then added to achieve a final volume of 100 μL. The plates were incubated for 2 hours at room temperature and then filtered onto PEI coated GF/B filter plates, pre-soaked for 1 hour in Assay Buffer, using a 96-well plate Tomtec cell harvester. Five washes with 250 μL wash buffer (50 mM HEPES, 1 mM EDTA, pH 7.4) were performed at 4° C. to remove unbound radioactivity. The plates were dried then sealed from underneath using Packard plate sealers and MicroScint-O (50 μL) was added to each well. The plates were sealed (TopSeal A) and filter-bound radioactivity was measured with a scintillation counter (TopCount, Packard BioScience) using a 3-minute counting protocol.
(§1) Total specific binding (B0) was determined by subtracting the mean NSB from the mean maximum binding. NSB values were also subtracted from values from all other wells. […] Data was fitted to a four parameter logistic equation to determine the compound potency, which was expressed as pIC50 (negative log molar concentration inducing 50% inhibition of [^3H]-prazosin binding).

[2] = molecular target: T3, recombinant human Dopamine Subtype D2s receptors (Homo sapiens, UniProt P14416); assay: Dopamine D2 selectivity binding assay ([3H]-spiperone); details: inhibition of [3H]-spiperone (0.16 nM) binding; read-out: D2 bind pIC50 (converted)
T3 construct: purchased Perkin Elmer
T3 sequence (P14416 1-414 isoform P14416-2): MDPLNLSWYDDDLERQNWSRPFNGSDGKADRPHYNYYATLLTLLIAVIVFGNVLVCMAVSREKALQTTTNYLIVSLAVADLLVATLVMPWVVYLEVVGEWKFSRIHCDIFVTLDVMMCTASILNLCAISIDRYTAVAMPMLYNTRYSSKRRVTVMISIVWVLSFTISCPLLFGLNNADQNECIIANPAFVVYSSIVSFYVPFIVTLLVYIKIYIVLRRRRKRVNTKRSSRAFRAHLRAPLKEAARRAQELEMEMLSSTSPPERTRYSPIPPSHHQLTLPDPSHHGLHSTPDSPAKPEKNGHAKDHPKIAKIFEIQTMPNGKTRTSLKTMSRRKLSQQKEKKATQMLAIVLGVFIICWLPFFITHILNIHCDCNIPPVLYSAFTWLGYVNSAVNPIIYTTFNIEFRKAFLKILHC
Experimental: Membranes containing recombinant human Dopamine Subtype D2s receptors were obtained from Perkin Elmer. These were diluted in Assay Buffer (50 mM HEPES, 1 mM EDTA, 120 mM NaCl, 0.1% gelatin, pH 7.4) to provide a final concentration of membranes that gave a clear window between maximum and minimum specific binding.
Assays were performed in U-bottomed 96-well polypropylene plates. 30 μL [^3H]-spiperone (0.16 nM final concentration) and 30 μL of test compound (10× final concentration) were added to each test well. For each assay plate 8 replicates were obtained for [^3H]-spiperone binding in the presence of 30 μL vehicle (10% (v/v) DMSO in Assay Buffer; defining maximum binding) or 30 μL Haloperidol (10 μM final concentration; defining non-specific binding (NSB)). Membranes were then added to achieve a final volume of 300 μL. The plates were incubated for 2 hours at room temperature and then filtered onto PEI coated GF/B filter plates, pre-soaked for 1 hour in Assay Buffer, using a 96-well plate Tomtec cell harvester. Five washes with 250 μL wash buffer (50 mM HEPES, 1 mM EDTA, 120 mM NaCl, pH 7.4) were performed at 4° C. to remove unbound radioactivity. The plates were dried then sealed from underneath using Packard plate sealers and MicroScint-O (50 μL) was added to each well. The plates were sealed (TopSeal A) and filter-bound radioactivity was measured with a scintillation counter (TopCount, Packard BioScience) using a 3-minute counting protocol.
as §1, with “[^3H]-spiperone” for “[^3H]-prazosin”

Row | Compound | EC50 (Adrenergic β2) [nM] | β2 Int Act (Adrenergic β2) | IC50 [1] [nM] | IC50 [2] [nM]
1 | CC(C)N(CCNCCc1ccc(O)c2[nH]c(=O)sc12)C(=O)CCNCCc1ccccc1 [Example 1, N-(2-{[2-(4-Hydroxy-2-oxo-2,3-dihydro-1,3-benzothiazol-7-yl)ethyl]amino}ethyl)-N-isopropyl-N^3-(2-phenylethyl)-β-alaninamide bis-trifluoroacetic acid salt] | 20 | 0.78 | 251 | 398
2 | CC(C)(CO)CN(CCNCCc1ccc(O)c2[nH]c(=O)sc12)C(=O)CCNCCc1ccc(Cl)cc1 [Example 40, N^3-[2-(4-Chlorophenyl)ethyl]-N-(3-hydroxy-2,2-dimethylpropyl)-N-(2-{[2-(4-hydroxy-2-oxo-2,3-dihydro-1,3-benzothiazol-7-yl)ethyl]amino}ethyl)-β-alaninamide diacetic acid salt] | 63.1 | 0.64 | 794 | 794
3 | CC(C)(Cc1ccccc1)NCCC(=O)N(CCNCCc1ccc(O)c2[nH]c(=O)sc12)C1CCCCC1 [Example 19, N-Cyclohexyl-N^3-(1,1-dimethyl-2-phenylethyl)-N-(2-{[2-(4-hydroxy-2-oxo-2,3-dihydro-1,3-benzothiazol-7-yl)ethyl]amino}ethyl)-β-alaninamide bis-trifluoroacetic acid salt] | 39.8 | 0.70 | 398 | 1000
4 | CC(C)N(CCNCCc1ccc(O)c2[nH]c(=O)sc12)C(=O)CCNCCc1ccc(Cl)cc1 [Example 3, N^3-[2-(4-Chlorophenyl)ethyl]-N-(2-{[2-(4-hydroxy-2-oxo-2,3-dihydro-1,3-benzothiazol-7-yl)ethyl]amino}ethyl)-N-isopropyl-β-alaninamide bis-trifluoroacetic acid salt] | 39.8 | 0.34 | 251 | 794
5 | Cc1cccc(CCNCCC(=O)N(CCNCCc2ccc(O)c3[nH]c(=O)sc23)CC(C)(C)C)c1 [Example 10, N-(2,2-Dimethylpropyl)-N-(2-{[2-(4-hydroxy-2-oxo-2,3-dihydro-1,3-benzothiazol-7-yl)ethyl]amino}ethyl)-N^3-[2-(3-methylphenyl)ethyl]-β-alaninamide bis-trifluoroacetic acid salt] | 5.01 | 0.69 | 251 | 794
6 | O=C(CCNCCc1ccccn1)N(CCNCCc1ccc(O)c2[nH]c(=O)sc12)C1CCCCC1 [Example 33, N-Cyclohexyl-N-(2-{[2-(4-hydroxy-2-oxo-2,3-dihydro-1,3-benzothiazol-7-yl)ethyl]amino}ethyl)-N^3-(2-pyridin-2-ylethyl)-β-alaninamide bis-trifluoroacetic acid salt] | 15.8 | 0.78 | 100 | 631
7 | COc1cccc(CCNCCC(=O)N(CCNCCc2ccc(O)c3[nH]c(=O)sc23)C2CCCCC2)c1 [Example 70, N^1-Cyclohexyl-N^1-(2-{[2-(4-hydroxy-2-oxo-2,3-dihydro-1,3-benzothiazol-7-yl)ethyl]amino}ethyl)-N^3-[2-(3-methoxyphenyl)ethyl]-β-alaninamide bis-trifluoroacetic acid salt] | 5.01 | 0.84 | 126 | 200

Results, then the molecule that gave them:

Row | EC50 (Adrenergic β2) [nM] | β2 Int Act (Adrenergic β2) | IC50 [1] [nM] | IC50 [2] [nM] | Compound
8 | 31.6 | 0.85 | 251 | 3980 | CC(C)(CNCCC(=O)N(CCNCCc1ccc(O)c2[nH]c(=O)sc12)C1CCCCC1)c1ccccc1 [Example 21, N-Cyclohexyl-N-(2-{[2-(4-hydroxy-2-oxo-2,3-dihydro-1,3-benzothiazol-7-yl)ethyl]amino}ethyl)-N^3-(2-methyl-2-phenylpropyl)-β-alaninamide bis-trifluoroacetic acid salt]
9 | 10 | 0.97 | 251 | 794 | C[C@@H](CNCCC(=O)N(CCNCCc1ccc(O)c2[nH]c(=O)sc12)C1CCCCC1)c1ccccc1 [Example 20, N-Cyclohexyl-N-(2-{[2-(4-hydroxy-2-oxo-2,3-dihydro-1,3-benzothiazol-7-yl)ethyl]amino}ethyl)-N^3-[(2R)-2-phenylpropyl]-β-alaninamide bis-trifluoroacetic acid salt]
10 | 3.98 | 0.89 | 200 | 794 | C[C@H](CNCCC(=O)N(CCNCCc1ccc(O)c2[nH]c(=O)sc12)C1CCCCC1)c1ccccc1 [Example 18, N-Cyclohexyl-N-(2-{[2-(4-hydroxy-2-oxo-2,3-dihydro-1,3-benzothiazol-7-yl)ethyl]amino}ethyl)-N^3-[(2S)-2-phenylpropyl]-β-alaninamide bis-trifluoroacetic acid salt]
